The subject of this assay is HGC-27. The assay is described as follows: Cell viability (CellTiter-Blue, 72 h), HGC-27 gastric cancer cells. It is filed as cell-based. As to conditions: Homo sapiens. As for the experimental part: The following cell lines were tested in this example: Lung Cancer (A549, NCI-H460); Pancreatic cancer (PANC1, Mia-Pa-Ca-2); Melanoma (WM115, A375); Ovarian cancer (OVCAR3, SKOV3); Gastric cancer (MKN45, HGC-27); Renal cancer (ACHN) and Bladder Cancer (RT112).
Each tumour cell line was maintained in vitro in RPMI 1640+10% heat inactivated FBS and 2 mM L-glutamine (growth media) at 37° C. in 5% CO2 and humidified conditions. The cells were harvested, washed, re-suspended into growth medium and counted. The cells were re-suspended into assay media (RPMI 1640+5% heat inactivated FBS+ and 2 mM L-glutamine) at 4×10^4 cells/ml (dependent upon cell type) and plated into the middle 240 wells of 384 well tissue culture plates (Corning CellBind, black-wall plates) 25 μl/well aliquots; 50 μl of growth media was aliquoted into the outer wells. There were 3 plates for each cell line.
The plates were incubated overnight at 37° C., in 5% humidified CO2.
The phytocannabinoid test compounds were prepared in 100% DMSO vehicle at a stock concentration of 20 and 40 mM.
Starting with the 20 mM stock in DMSO, this was serially diluted (2 fold) in DMSO in a 96-well plate, to 20 (no dilution), 10, 5, 2.5, 1.25, 0.625, 0.315, 0.157 and […]. Following this, 10 ul of each compound dilution was diluted into 990 ul of 1% (v/v) FBS media in a deep well block making the final concentrations of 200, 100, 50, 25, 12.5, 6.25, 3.125, 1.56 and 0.79 μM (2× final assay concentrations and 1% DMSO).
An equal volume of each cannabinoid in the combination (stock concentration 40 mM) was mixed together to make a stock of 20 mM of each cannabinoid in DMSO. This was serially diluted (2 fold) in DMSO in a 96-well plate, to 20 (no dilution), 10, 5, 2.5, 1.25, 0.625, 0.315, 0.157 and […]. Following this, 10 ul of each combination dilution was diluted into 990 ul of 1% (v/v) FBS media in a deep well block making the final concentrations of 200, 100, 50, 25, 12.5, 6.25, 3.125, 1.56 and 0.79 μM (2× final assay concentrations and 1% DMSO).
Cisplatin (stock of 1 mg/ml=3.33 mM in water) was diluted in 1% FBS media to give a stock concentration of 1 mM. This was then diluted in 1% FBS media from the stock solution to 200 μM, then serially diluted (3-fold) in 1% FBS media to 200 (no dilution), 66.66, 22.22, 7.41, 2.47, 0.82, 0.27, 0.09, 0.03 μM (2× final assay concentrations; no DMSO).
The plates were incubated for 72 h at 37° C. in 5% humidified CO2. To develop the plates, at 72 h, 10 μl of CellTiter-Blue™ reagent was added to each test/blank well.
The plates were incubated at 37° C., 5% humidified CO2. Fluorescence was measured using a Flex II Station plate reader (570 nm excitation wavelength, 600 nm emission wavelength, 590 nm cut-off) after 3 h.
The phytocannabinoid compounds CBD, CBGA, CBG, CBDA, THCV and THC were tested on a panel of lung (A549, NCI-H460), pancreatic (PANC1, Mia-Pa-Ca-2), melanoma (WM115, A375), ovarian (OVCAR3, SKOV3), gastric (MKN45, HGC-27), renal (ACHN) and bladder (RT112) cancer cell lines according to the protocol for 72 h in media containing 1% FBS.
The IC50 values for each phytocannabinoid and combination of CBD with the other phytocannabinoids was calculated for each cell line. The raw data values expressed in relative fluorescent units were normalised to the vehicle for each individual plate and any reduction in fluorescence indicated a decrease in viability.
This calculation was as described in Example 1 above.

Where [1] appears, read: HGC-27, HGC27 cells, 1% FBS, read-out: Dm (potency, median effect).
Where [2] appears, read: HGC-27, 1% FBS, 72 h, read-out: Cell line IC50 value.

The structures appear in SMILES notation. Where two headings read alike, the source gives them in different places.

On to `C=C(C)[C@@H]1CCC(C)=C[C@H]1c1c(O)cc(CCCCC)cc1O` [CBD, Cannabidiol], for which the IC50 reads like this: under setting [1], 1.72 µM; under setting [2], 1.5 µM.
The corresponding values for `C=C(C)[C@@H]1CCC(C)=C[C@H]1c1c(O)cc(CCCCC)c(C(=O)O)c1O` [CBDA, Cannabidiolic acid] are 10.4 µM and 1.3 µM.
The like results for `CCCCCc1cc(O)c(C/C=C(\C)CCC=C(C)C)c(O)c1` [CBG, Cannabigerol] were, in that order, 1.73 µM and 1.6 µM.
The corresponding values for `CCCCCc1cc(O)c(C/C=C(\C)CCC=C(C)C)c(O)c1C(=O)O` [CBGA, Cannabigerolic acid] are 5.47 µM and 7.8 µM.
With `CCCCCc1cc(O)c2c(c1)OC(C)(C)[C@@H]1CCC(C)=C[C@@H]21` [THC, Tetrahydrocannabinol, reference compound], the IC50 is, setting by setting: under setting [1], 2.74 µM; under setting [2], 2.8 µM.
The corresponding values for `CCCc1cc(O)c2c(c1)OC(C)(C)[C@@H]1CCC(C)=C[C@@H]21` [THCV, Tetrahydrocannabivarin] are 3.06 µM and 4.1 µM.
